From patent US12527798B2, “Preservation of immune response during chemotherapy regimens” (Pharmacosmos Holding A/S, priority 2016, dated 2026)
Read-outs that look alike come from different tables or passages of the source.

Tests used:
[1] = test system: MC38 tumor cells; type: in vivo; conditions: dosing schedule not given, anti-PD-L1 combination study
Protocol: (§1) Anti-tumor activity of Compound I in combination with PD-L1 (clone 10F.9G2) and oxaliplatin was evaluated in the MC38 syngeneic murine colon carcinoma model. For all xenograft studies, nine-week old female C57BL/6 mice (C57BL/6NCrl) were implanted with MC38 tumor cells and treatment was initiated when mean tumor volume was approximately 100 mm^3.
(§2) Briefly, Compound I (100 mg/kg) and oxaliplatin (10 mg/kg) were administered intraperitoneally (IP) once weekly for three doses and the checkpoint inhibitor administration was varied as depending on the dosing schedule. In the Induction (I) dosing schedule, mouse anti-PD-L1 (100 μg/animal, IP) was given twice weekly for two weeks starting on Day 1 and ending on Day 15. In the Maintenance (M) dosing schedule, mouse anti-PD-L1 (100 μg/animal, IP) was given twice weekly starting on Day 15 and continuing through the end of study. In the Induction+Maintenance (IM) dosing schedule, mouse anti-PD-L1 (100 μg/animal, IP) was given twice weekly starting on Day 1 and continuing through the end of study.
(§3) Single, two, and three drug combinations were tested and Compound I was administered 30 minutes prior to chemotherapy treatment. Complete response (CR) and partial response (PR) were calculated using standard Charles River Laboratories (CRL; RTP, NC) criteria. Body weight (BW) and health were monitored, and tumor volume was measured twice weekly. The individual tumor volume endpoint was 1000 mm^3 or Day 100, whichever came first. The arms of the study included the following: • 1) vehicle • 2) Compound I+anti-PD-L1 (clone 10F.9G2), IM dosing schedule • 3) Compound I+Oxaliplatin+anti-PD-L1 (clone 10F.9G2), IM dosing schedule • 4) Oxaliplatin+anti-mouse PD-L1 (clone 10F.9G2), M dosing schedule • 5) Compound I+oxaliplatin+anti-mouse PD-L1 (clone 10F.9G2), M dosing schedule • 6) oxaliplatin+anti-mouse PD-L1 (clone 10F.9G2), I dosing schedule • 7) Compound I+oxaliplatin+anti-mouse PD-L1 (clone 10F.9G2), I dosing schedule

[2] = test system: MC38 tumors; test: Whole-tumor interferon-gamma (Ifng) expression, PanCancer Immune Profiling Panel (Example 13); type: in vivo, C57BL/6 mice; conditions: Compound I added to oxaliplatin or oxaliplatin/anti-PD-L1 combinations, eight days; FIGS. 28-31
Protocol: Twenty-four hours after the final dose, mice were euthanized and tumors were harvested for analysis. Gene expression analysis was performed on whole tumors using the PanCancer Immune Profiling Panel. The normalized and Log 2 transformed expression level of interferon-gamma (Ifng) is plotted for each pair of treatment groups with or without Compound I. T=Compound I, O=oxaliplatin, P=anti-PD-L1.

[3] = test system: MC38 tumor; test: MC38 tumor volume under continuous daily dosing of Compound I with or without anti-PD-L1 (Example 16); type: in vivo, mice; conditions: continuous Compound I (daily x 28 days, IP, 100 mg/kg) added to anti-PD-L1; FIG. 38
Protocol: MC38 tumor-bearing mice were treated with Compound I (daily×28 days, IP, 100 mg/kg) with or without anti-PD-L1 (biweekly×2 weeks, IP, 100 ug/animal) and tumor volume was evaluated.

[4] = test system: splenocytes; test: Ex vivo splenocyte stimulation, IL-2 and IFNγ ELISA after 5-FU treatment (Example 6); type: in vivo, C57BL/6 mice; conditions: Compound I 100 mg/kg added to 5-FU 50 mg/kg, 3 daily IP doses, splenocytes stimulated with anti-CD3/CD28 72 h
Protocol: C57BL/6 mice were treated with 3 daily IP doses of 50 mg/kg 5-FU±100 mg/kg Compound I. Two and seven days after the final treatment, mice were euthanized and spleens were harvested. Splenocytes were stimulated ex vivo with anti-CD3/CD28 antibodies for 72 hours and interferon gamma (IFNγ) or interleukin-2 (IL-2) levels were measured via ELISA (R&D systems). After the ex-vivo splenocyte stimulation in C57BL/6 mice, Compound I enhanced IL-2 production (FIG. 12) and preserved IFNγ production (FIG. 13) after 5-FU treatment. A potential mechanism by which Compound I enhances anti-tumor activity includes the preservation of T lymphocyte function from chemotherapy.

[5] = test system: CD4+ and CD8+ T cells; test: T cell activation (CD69, IL-2) in splenocytes of MC38 tumor-bearing mice (Example 8); type: in vivo; conditions: Compound I added to oxaliplatin and anti-PD-L1, four days; spleen; FIGS. 16, 17
Excerpt: Twenty-four hours after the final dose, the mice were euthanized and spleens were harvested and processed to single-cell suspensions for T-cell analysis. Splenocytes were stained with anti-CD4, CD8, and CD69 antibodies for flow cytometric analysis. The percentage of activated CD4+ T cells was defined as the proportion of CD69+ cells within the CD8−CD4+ T cell fraction, while the percentage of activated CD8+ T cells was defined as the proportion of CD69+ cells within the CD8+CD4− T cell fraction, the results of which are shown in FIGS. 16 and 17. Additionally, splenocytes were also stimulated ex-vivo with anti-CD3/CD28 antibodies for 72 hours and were stained with anti-CD4, CD8, and IL-2 antibodies for flow cytometric analysis. The percentage of IL-2+ cells was defined as the proportion of IL-2+ cells within the […] T cell fraction, the results of which are shown in FIG. 18.

[6] = test system: CD8+ T cells; test: CFSE proliferation of CD8+ T cells in the presence of Tregs treated with Compound I (Example 9); type: cell-based, C57BL/6 mice; conditions: splenocytes stimulated with anti-CD3/CD28 72 hours; FIG. 20
Protocol: (§4) CD4+CD25+ Tregs were purified from spleens of C57BL/6 mice using a two-step magnetic bead separation process-depletion of all non-CD4+ cells followed by positive selection of CD25+ cells. Purified Tregs were cultured ex-vivo with […] antibodies and IL-2 for 48 hours with either 0, 250, or 1000 nM trilaciclib. […] The percentage of phospho-Rb+ Tregs was defined as phospho-Rb+ cells in the CD4+Foxp3+ population. […] CFSE-labeled splenocytes were stimulated ex-vivo with anti-CD3/CD28 antibodies for 72 hours in the presence or absence of Tregs treated with Compound I. Cells were stained with anti-CD4 and CD8 antibodies, and T cell proliferation was assessed by the dilution of the mean fluorescence intensity of CFSE in CD4-CD8+ T cells by flow cytometric analysis. Percent proliferation was calculated as (mean CFSE intensity of CD8+ T cells stimulated in the absence of Tregs)/(mean CFSE intensity of CD8+ T cells stimulated in the presence of Tregs)×100, the results of which are shown in FIG. 19 and FIG. 20.

[7] = test system: CDK4/6-Rb pathway; test: Phospho-Rb in purified Tregs cultured ex vivo, flow cytometry (Example 9); type: cell-based, C57BL/6 mice; conditions: 0, 250 or 1000 nM, 48 hours; FIG. 19
Protocol: as §4

[8] = test system: CT26 tumor; test: CT26 tumor growth in mice (Example 7); type: in vivo; conditions: Compound I added to an anti-PD-L1/oxaliplatin regimen
Protocol: CT26 bearing mice are treated with Compound I (IP, 100 mg/kg, weekly×3), anti-PD-L1 (IP, 5 mg/animal, biweekly to end), and/or oxaliplatin (IP, 10 mg/kg, weekly×3) and tumors were evaluated.

[9] = test system: MC38 tumors; test: Whole-tumor gene expression, PanCancer Immune Profiling Panel, two weekly doses (Examples 12 and 14); type: in vivo, C57BL/6 mice; conditions: two weekly doses 100 mg/kg IP, p <0.05, absolute fold change >1.3
Protocol: MC38 tumor-bearing C57BL/6 mice were treated with two weekly doses of Compound I (100 mg/kg, IP). One day after the last dose, mice were euthanized and tumors were harvested for analysis. Gene expression analysis was performed on whole tumors using the PanCancer Immune Profiling Panel. Normalized and Log 2 transformed expression values were used for identification of differentially expressed genes, defined using a p-value cutoff of <0.05 and absolute fold change >1.3.

[10] = test system: intra-tumor immune cells; test: EdU incorporation in intra-tumor immune cell populations of MC38 tumor-bearing mice (Example 10); type: in vivo, C57BL/6 mice; conditions: one dose 100 mg/kg IP; EdU 6 to 48 hours after treatment; FIGS. 21, 22
Protocol: MC38 tumor-bearing C57BL/6 mice were treated with one dose of Compound I (100 mg/kg, IP), followed by in vivo EdU (5-ethynyl-2′-deoxyuridine, 200 μg/mouse, IP) incorporation 6 to 48 hours after treatment with Compound I. Eighteen hours after EdU dosing, mice were euthanized and tumors were harvested for analysis. Tumors were processed to single-cell suspensions, followed by depletion of dead cells and enrichment of CD45+ immune cells prior to antibody labeling for various lymphoid and myeloid immune cell populations defined as follows: CD8+ T cells (CD4−CD8+), CD4+ T cells (CD4+CD8−Foxp3−), Tregs (CD4+CD8−Foxp3+), NK (CD3−NK1.1+), monocytic myeloid derived suppressor cells (mMDSCs, CD11b+Ly6C+Ly6G−), granulocytic myeloid derived suppressor cells (gMDSCs, CD11b+Ly6C+Ly6G+), and macrophages (CD11b+Ly6C−Ly6G−). After cell surface staining, cell samples were fixed and EdU incorporation was detected by click chemistry followed by flow cytometric analysis. Inhibition of proliferation is represented as the (% EdU+ in Compound I treated)/(% EdU+ in vehicle treated)×100 for each cell population at each time point.

[11] = test system: MC38 tumor cells; type: in vivo; conditions: dosing schedule not given, anti-PD-1 combination study
Protocol: For all xenograft studies, nine-week old female C57BL/6 mice (C57BL/6NCrl) were implanted with MC38 tumor cells and treatment was initiated when mean tumor volume was approximately 100 mm^3. Compound I was administered in combination with oxaliplatin and […] according to the Induction and Maintenance (IM) dosing schedule, which is shown in FIG. 3.
Briefly, Compound I (100 mg/kg) and oxaliplatin (10 mg/kg) were administered intraperitoneally (IP) once weekly for three doses and mouse […] (5 mg/kg, IP) was given twice weekly starting on Day 1 and continuing through the end of study.
Single, two, and three drug combinations were tested and Compound I was administered 30 minutes prior to chemotherapy treatment. Complete response (CR) and partial response (PR) were calculated using standard Charles River Laboratories (CRL; RTP, NC) criteria. Body weight (BW) and health were monitored, and tumor volume was measured twice weekly. The individual tumor volume endpoint was 1000 mm^3 or Day 100, whichever came first.

[12] = test system: MC38 tumor cells; type: in vivo; conditions: interim data, dosing schedule not given
Protocol: as §1, with “mouse anti-PD-L1” for “PD-L1”, “10F.9G2),” for “10F.9G2)”, “5-flurouracil (5-FU)” for “oxaliplatin”
as §2, with “5-FU (75” for “oxaliplatin (10”, “doses. […]” for “doses and the checkpoint inhibitor administration was varied as depending on the dosing schedule.”
as §3, with “administered” for “administered 30”, “5-FU+anti-PD-L1” for “Compound I+anti-PD-L1”, “I+5-FU+anti-PD-L1” for “I+Oxaliplatin+anti-PD-L1”, “5-FU+anti-mouse” for “Oxaliplatin+anti-mouse”, “I+5-FU+anti-mouse” for “I+oxaliplatin+anti-mouse”, “5-FU+anti-mouse” for “oxaliplatin+anti-mouse”

CN1CCN(c2ccc(Nc3ncc4cc5n(c4n3)C3(CCCCC3)CNC5=O)nc2)CC1 [Compound I, trilaciclib]
Complete Response % [1]: 0%
Objective Response Rate % [1]: 0%
Overall Survival (OS) [1]: 19
Partial Response % [1]: 0%
interferon-gamma gene expression in tumor [2]: Upregulation
anti-tumor effect (tumor volume) [3]: does not enhance the anti-tumor effect and, in fact, causes some attenuation
IL-2 production ([4]; FIG. 12): enhanced
IFNγ production ([4]; FIG. 13): preserved
T cell activation (CD69+ CD4+ and CD8+ T cells) [5]: Enhanced T Cell Activation
proliferation of CD8+ T cells in the presence of Tregs treated with Compound I [6]: dose-dependent increase in proliferation
phospho-Rb level in Tregs [7]: dose-dependent down-regulation
anti-tumor efficacy [8]: consistently enhanced anti-tumor efficacy
expression of genes Il2, Il18, and Lta (positive regulation of interferon-gamma production) ([9]; FIGS. 25-27): Up-regulated
expression of genes Cdkn1a, Cxcl1, Il6, Il10, Il19, Ptgs2 (reactive oxygen species metabolism) ([9]; FIGS. 32-37): Down-regulated
proliferation of intra-tumor lymphoid and myeloid immune cell populations (EdU) [10]: transient and reversible inhibition of cell proliferation
Complete Response % [11]: 10%
Objective Response Rate % [11]: 20%
Overall Survival (OS) [11]: 22
Partial Response % [11]: 10%

O=c1[nH]cc(F)c(=O)[nH]1 [Compound 5-FU, 5-Fluorouracil]
Overall Survival @ D29% ([12]; Day 29): 30%
Complete Response % ([12]; MC38): 0%
Objective Response Rate % ([12]; MC38): 0%
Partial Response % ([12]; MC38): 0%
Progressive Disease % ([12]; percent of tumors that have doubled in size by Day 29): 100%

O=C1[O][Pt]2([NH][C@@H]3CCCC[C@H]3[NH]2)[O]C1=O [Oxaliplatin, oxaliplatin, reference compound]
Complete Response % [1]: 22%
Objective Response Rate % [1]: 22%
Overall Survival (OS) [1]: 36
Partial Response % [1]: 0%
Complete Response % [11]: 10%
Objective Response Rate % [11]: 10%
Overall Survival (OS) [11]: 31
Partial Response % [11]: 0%
